Several values for one entry are separate records, joined by “and”; a condition that tells them apart may be missing. Identical values can stand only once.
Key:
mAbs to SP and SP-enol = experiment: Direct cELISA, binding of analytes and other pesticides by the generated mAbs; design: species or system mouse; conditions: for binding by the antibodies: other pesticides, insecticides and fungicides
From the text: Six mouse mAbs were obtained; three were from immunogen BSA‒SPm—named SPm#23, SPm#25, and SPm#216—and three from conjugate BSA‒SPo—named SPo#227, SPo#237, and SPo#243. These antibodies contained κ light chains and were of the IgG1 isotype, except mAb SPm#25 which was IgG2a. The affinity to SP and SP-enol was studied by checkerboard cELISA in the capture antibody-coated direct format, using homologous and heterologous enzyme tracers (with the same or different hapten, respectively, than the immunizing conjugate). SP and SP-enol standards were prepared in PBS (10 mM phosphate buffer, pH 7.4, with 140 mM NaCl) and tracer solutions for the competitive step were prepared in PBS-T (PBS containing 0.05% (v/v) Tween-20). […] Tracers with linker site heterologies were not bound by the antibodies. The only exception was mAb SPm#23 which did recognize the heterologous HRP‒SPh conjugate. For this antibody, the spacer arm of hapten SPh was located at a more proximal site than that of hapten […]. The lowest IC50 value with the homologous tracer was around 3 nM for SP-enol whereas binding to SP was moderate (IC50 values were higher than 30 nM).
(§1) Concerning specificity, the two assayed immunogens (BSA‒SPm and BSA‒SPo) afforded equivalent results. […] Cross-reactivity with the main SP metabolites was studied with antibody SPm#23.
(§2) Microplates were precoated with GAM in order to immobilise the mAb. The competitive step was carried out by mixing the analyte solution or diluted sample with the enzyme tracer solution. Standard curves were built in borosilicate glass tubes from 0.03 to 30 nM by a threefold serial dilution of the most concentrated standard solution, and a blank (no analyte) was also run. Concentrated stock solutions of the analytes in anhydrous DMF were used to prepare the most concentrated standard solution—the DMF concentration was always lower than 0.1% (v/v). The complete immunoassay procedure can be found in the Supplementary Information file.
(§3) Table S1. Specificity of the
(§4) 7. Direct competitive ELISA procedure
(§5) The same protocol previously described for this format was applied.7 Briefly, plates were coated with 100 µL per well of 1 µg/mL GAM solution in carbonate‒bicarbonate buffer, pH 9.6, by overnight incubation at 4 °C. Wells were washed four times with washing solution (150 mM NaCl with 0.05% (v/v) Tween-20) after each incubation step. Then, 100 µL per well of specific mAb solution in PBS-T was added and plates were incubated at room temperature during 1 h. The competitive reaction was carried out by adding 50 µL per well of analyte solution or diluted sample and 50 µL per well of tracer […]
(§6) enzyme substrate solution (2 mg/mL o-phenylendiamine and 0.012% (v/v) H2O2 in 25 mM sodium citrate and 62 mM sodium phosphate buffer, pH 5.4). Ten minutes later, the enzyme reaction was stopped by adding 100 µL per well of 1 M H2SO4.
8. Influence of pH and ionic strength […]
(§7) 7 E. Ceballos-Alcantarilla, D. López-Puertollano, C. Agulló, A. Abad-Fuentes, A. Abad-Somovilla, J. V. Mercader.
Combined heterologies for monoclonal antibody-based immunoanalysis of fluxapyroxad. Analyst 143, 5718‒

mAb SPm#23 [1] = experiment: Antibody specificity (cross-reactivity) of the selected mAb; format: binding, mouse; conditions: for CR (%): cross-reactivity of the selected mAb, SP-enol = 100, n=3
Protocol: as §1, §2, §3, §4, §5, §6
8. Influence of pH and ionic strength
Figure S5. Influence of pH and ionic strength over the Amax and IC50 values of the spirotetramat-enol standard curve of the studied direct cELISA.
as §7
Combined heterologies for monoclonal antibody-based immunoanalysis of fluxapyroxad. Analyst 143, 5718‒ […]

[2] = Spirotetramat hydrolysis study by HPLC‒MS/MS; format: physicochemical; design: content found by HPLC–MS/MS, sample treatment A / content found by HPLC–MS/MS, sample treatment B / content found by HPLC–MS/MS, sample treatment C / content found by HPLC–MS/MS, sample treatment D: unit not given beside the values; conditions: for content found by HPLC–MS/MS, sample treatment A: SP hydrolysed (40 mM NaOH, 10 min, room temperature); for content found by HPLC–MS/MS, sample treatment B: SP without hydrolysis; for content found by HPLC–MS/MS, sample treatment C: SP-enol hydrolysed (40 mM NaOH, 10 min, room temperature)
Protocol: (§8) In order to simultaneously quantify SP and SP-enol contents in a sample, an in situ procedure for treating the sample with alkaline solution in order to hydrolyse SP into SP-enol was assessed. SP and SP-enol standard solutions were prepared in MilliQ water and diluted fivefold with 40 mM NaOH. The mixtures were incubated 10 min at room temperature and diluted twofold with dilution buffer (200 mM Tris·HCl buffer, pH 8.0, containing 280 mM NaCl). For the competitive step, enzyme tracer solutions were prepared in TBS-T (100 mM Tris·HCl buffer, pH 8.0, containing 140 mM NaCl and 0.05% (v/v) Tween-20). As shown in the inset of Table 2, the obtained standard curves of SP-enol and hydrolysed SP were almost identical. This hydrolysis procedure was validated by HPLC‒MS/MS. SP and SP-enol aqueous solutions (50 µg/mL) were treated with NaOH and, 10 min later, the pH was lowered as previously described. Then, 10 µL of hydrolysed and diluted sample was transferred into 990 µL of acetonitrile and dried with anhydrous MgSO4. Controls without the hydrolysis step were also evaluated. Finally, the contents of SP, SP-enol, SP-keto, and SP-mono in the organic extracts were quantified (Table 2). […] Those samples were also analysed with the studied direct cELISA by running SP-enol standard solutions that had been incubated in NaOH and diluted with dilution buffer like the samples. […] Consequently, the developed hydrolysis procedure seemed to perform adequately for SP and SP-enol residue quantification as SP-enol equivalents.
SP, SP-enol, SP-keto, and SP-mono standard solutions were prepared by serial dilution in acetonitrile from 1 to 2500 μg/L in amber glass vials and kept at − 20 °C. The injection volume was 5 µL and the column temperature was 45 °C. The analysis was carried out using a C18 reverse phase column with a gradient of 0.2% (v/v) formic acid in water (A) and acetonitrile (B) as mobile phase at a flow rate of 0.3 mL/min. The elution profile was 0‒3 min, from 5% B to 95% B, 3.0‒3.5 min, 95% B, 3.5‒3.6 min, from 95% B to 5% B, and 3.6‒8 min, 5% B. Spectra were acquired in positive ionization multiple reaction monitoring mode with interchannel delay of 0.02 s.

[3] = Spirotetramat hydrolysis study by direct cELISA; format: physicochemical
Protocol: as §8

mAb SPm#23 [4] = experiment: Optimized direct cELISA (mAb SPm#23 with tracer HRP–SPh), SP-enol standard curve; format: binding, mouse
Protocol: as §8
The sigmoidal inhibition curve obtained for SP-enol and the final assay conditions of the developed direct cELISA are provided in Table 3. […] The Amax value of the standard curve was near 1.0, the slope was − 1.4, and the background signal was negligible.
as §2
The absorbance of each microplate well was immediately read at 492 nm using a reference wavelength at 650 nm, and values were processed with KCJunior software from BioTek Instruments. The SigmaPlot Version 14.0 was used to fit the experimental values to a standard four-parameter logistic curve. Immunoassay sensitivity was estimated as the concentration of analyte affording a 50% decrease (IC50) of the maximum absorbance (Amax) obtained in the absence of analyte. The LOD of the assay was defined as the IC10 of the sigmoidal inhibition curve. The LOQ was experimentally determined as the lowest analyte concentration that provided accurate and precise results using fortified food samples. […]
as §4
The same protocol previously described for this format was applied.7 Briefly, plates were coated with 100 µL per well of 1 µg/mL GAM solution in carbonate‒bicarbonate buffer, pH 9.6, by overnight incubation at 4 °C. Wells were washed four times with washing solution (150 mM NaCl with 0.05% (v/v) Tween-20) after each incubation step. […]

[5] = SPm#23 100 μg/L, HRP–SPh 30 μg/L, Tris·HCl pH 8.0, after 40 mM NaOH step, n = 5

Oc1ccccc1-c1ccccc1 [o-phenylphenol]
binding by the antibodies (mAbs to SP and SP-enol): did not bind

COC1CCC2(CC1)NC(=O)C(c1cc(C)ccc1C)C2O (centres unmarked) [SP-mono, spirotetramat-monohydroxy]
CR (%) (mAb SPm#23 [1]): 0.19% | binding (mAb SPm#23 [1]; mAb SPm#23): almost negligible | content found by HPLC–MS/MS, sample treatment A [2]: 0.01 | content found by HPLC–MS/MS, sample treatment B [2]: 0.12 | content found by HPLC–MS/MS, sample treatment C ([2]; C): 0.02 | content found by HPLC–MS/MS, sample treatment D ([2]; D, SP-enol without hydrolysis): 0.02

c1ccc2[nH]c(-c3cscn3)nc2c1 [thiabendazole]
binding by the antibodies (mAbs to SP and SP-enol): did not bind

C#CCOc1ccc(CCNC(=O)C(OCC#C)c2ccc(Cl)cc2)cc1OC (centres unmarked) [mandipropamid]
binding by the antibodies (mAbs to SP and SP-enol): did not bind

COC1CCC2(CC1)NC(=O)C(c1cc(C)ccc1C)=C2O[C@@H]1O[C@H](CO)[C@@H](O)[C@H](O)[C@H]1O (some centres unmarked) [SP-glu, spirotetramat-enol-glucoside]
CR (%) (mAb SPm#23 [1]): 5.11% | affinity to SP-enol, times higher than to the analyte (mAb SPm#23 [1]; mAb SPm#23): ≥ 20 times

Cc1cc(C2CC2)nc(Nc2ccccc2)n1 [cyprodinil]
binding by the antibodies (mAbs to SP and SP-enol): did not bind

COC(=O)N(OC)c1ccccc1COc1ccn(-c2ccc(Cl)cc2)n1 [pyraclostrobin]
binding by the antibodies (mAbs to SP and SP-enol): did not bind

CNC(=O)/C(=N/OC)c1ccccc1COc1cc(C)ccc1C [dimoxystrobin]
binding by the antibodies (mAbs to SP and SP-enol): did not bind

N#Cc1c(Cl)c(Cl)c(Cl)c(C#N)c1Cl [chlorothalonil]
binding by the antibodies (mAbs to SP and SP-enol): did not bind

O=[N+]([O-])NC1=NCCN1Cc1ccc(Cl)nc1 [imidacloprid]
binding by the antibodies (mAbs to SP and SP-enol): did not bind

CO/C=C(/C(=O)OC)c1ccccc1Oc1cc(Oc2ccccc2C#N)ncn1 [azoxystrobin]
binding by the antibodies (mAbs to SP and SP-enol): did not bind

COC1CCC2(CC1)NC(=O)C(O)(c1cc(C)ccc1C)C2=O (centres unmarked) [SP-keto, spirotetramat-ketohydroxy]
CR (%) (mAb SPm#23 [1]): 0.02% | binding (mAb SPm#23 [1]; mAb SPm#23): almost negligible | content found by HPLC–MS/MS, sample treatment A [2]: 0.09 | content found by HPLC–MS/MS, sample treatment B [2]: 0.08 | content found by HPLC–MS/MS, sample treatment C ([2]; C): 0.39 | content found by HPLC–MS/MS, sample treatment D ([2]; D, SP-enol without hydrolysis): 0.43

CCCOC(=O)NCCCN(C)C [propamocarb]
binding by the antibodies (mAbs to SP and SP-enol): did not bind

N#Cc1c[nH]cc1-c1cccc2c1OC(F)(F)O2 [fludioxonil]
binding by the antibodies (mAbs to SP and SP-enol): did not bind

CC1(C)[C@H](C(=O)O[C@H](C#N)c2cccc(Oc3ccccc3)c2)[C@@H]1C=C(Br)Br [deltamethrin]
binding by the antibodies (mAbs to SP and SP-enol): did not bind

CC1(C(=O)Nc2ccc(O)c(Cl)c2Cl)CCCCC1 [fenhexamid]
binding by the antibodies (mAbs to SP and SP-enol): did not bind

CSC1=N[C@@](C)(c2ccccc2)C(=O)N1Nc1ccccc1 [fenamidone]
binding by the antibodies (mAbs to SP and SP-enol): did not bind

Cc1cc(C)c(C2=C(OC(=O)CC(C)(C)C)C3(CCCC3)OC2=O)c(C)c1 [spiromesifen]
binding by the antibodies (mAbs to SP and SP-enol): did not bind

O=C(Nc1ccccc1-c1ccc(Cl)cc1)c1cccnc1Cl [boscalid]
binding by the antibodies (mAbs to SP and SP-enol): did not bind

CCC(C)(C)C(=O)OC1=C(c2ccc(Cl)cc2Cl)C(=O)OC12CCCCC2 [spirodiclofen]
binding by the antibodies (mAbs to SP and SP-enol): did not bind

CC(Cc1ccc(C(C)(C)C)cc1)CN1C[C@@H](C)O[C@@H](C)C1 (some centres unmarked) [fenpropimorph]
binding by the antibodies (mAbs to SP and SP-enol): did not bind

CC12CC1(C)C(=O)N(c1cc(Cl)cc(Cl)c1)C2=O (centres unmarked) [procymidone]
binding by the antibodies (mAbs to SP and SP-enol): did not bind

CCCN(CC)CC1COC2(CCC(C(C)(C)C)CC2)O1 (centres unmarked) [spiroxamine]
binding by the antibodies (mAbs to SP and SP-enol): did not bind

Cc1cc(C)nc(Nc2ccccc2)n1 [pyrimethanil]
binding by the antibodies (mAbs to SP and SP-enol): did not bind

CO[C@H]1CC[C@]2(CC1)NC(=O)C(c1cc(C)ccc1C)=C2O [SP-enol, spirotetramat-enol]
CR (%) (mAb SPm#23 [1]): 100% | fate on incubation in basic solution ([2]; 40 mM NaOH, 10 min, room temperature, HPLC‒MS/MS): remained unmodified | content found by HPLC–MS/MS, sample treatment A [2]: 116.7 | content found by HPLC–MS/MS, sample treatment B [2]: 1.44 | content found by HPLC–MS/MS, sample treatment C ([2]; C): 149.1 | Recovery (%), sample treatment C ([2]; C, SP-enol hydrolysed, HPLC–MS/MS): 119.6% | content found by HPLC–MS/MS, sample treatment D ([2]; D, SP-enol without hydrolysis): 142.8 | Recovery (%), sample treatment D ([2]; D, SP-enol without hydrolysis, HPLC–MS/MS): 114.6% | recovery measured as SP-enol by direct cELISA ([3]; incubated in NaOH solution (samples A and C)): 117.6% | recovery measured as SP-enol by direct cELISA ([3]; non-hydrolysed control solution (samples B and D)): 118.0% | LOD (μg/L) (IC10) (mAb SPm#23 [4]; IC10 of the SP-enol inhibition curve, n = 5): 0.02 µg/L and 0.022 ± 0.004 µg/L | IC50 (mAb SPm#23 [4]; [5]): 0.34 nM and 0.344 nM | IC50 SP-enol (mAb SPm#23 [4]; [5]): 0.1 ng/mL and 0.104 ± 0.007 ng/mL | IC50 value for the sum of spirotetramat and spirotetramat-enol (mAb SPm#23 [4]; direct cELISA, heterologous bioconjugate): 0.1 ng/mL | IC50 (mAbs to SP and SP-enol; homologous tracer, read-out: lowest IC50 value with the homologous tracer): ~3 nM

Source: paper PMC7815808, “Enzyme and lateral flow monoclonal antibody-based immunoassays to simultaneously determine spirotetramat and spirotetramat-enol in foodstuffs” (Scientific Reports, 2021)
